Entries after “also recorded” stand apart in the source; their conditions may differ.
Legend:
[1] = cited from earlier work; for Reaction in Blood Half-life / Reaction in Blood Product (moles): in vitro
[2] = Non-enzymatic reaction of AllylSH with H2O2; format: physicochemical
Description: Thiols are known to have various antioxidant properties, including the ability to scavenge (H2O2), although the specific ability of allyl mercaptan in this regard may not have been previously investigated.

[3] = compounds from Allium grayi Regel and Allium fistulosum; cited from earlier work
[4] = tested on: 13 types of bacteria; details: cited from earlier work
[5] = pKa and ionization; format: physicochemical; details: pH of approximately 7
[6] = biological target: CYP2D6 (Homo sapiens, UniProt P10635); details: cited from earlier work
Chain of CYP2D6 (P10635 whole entry): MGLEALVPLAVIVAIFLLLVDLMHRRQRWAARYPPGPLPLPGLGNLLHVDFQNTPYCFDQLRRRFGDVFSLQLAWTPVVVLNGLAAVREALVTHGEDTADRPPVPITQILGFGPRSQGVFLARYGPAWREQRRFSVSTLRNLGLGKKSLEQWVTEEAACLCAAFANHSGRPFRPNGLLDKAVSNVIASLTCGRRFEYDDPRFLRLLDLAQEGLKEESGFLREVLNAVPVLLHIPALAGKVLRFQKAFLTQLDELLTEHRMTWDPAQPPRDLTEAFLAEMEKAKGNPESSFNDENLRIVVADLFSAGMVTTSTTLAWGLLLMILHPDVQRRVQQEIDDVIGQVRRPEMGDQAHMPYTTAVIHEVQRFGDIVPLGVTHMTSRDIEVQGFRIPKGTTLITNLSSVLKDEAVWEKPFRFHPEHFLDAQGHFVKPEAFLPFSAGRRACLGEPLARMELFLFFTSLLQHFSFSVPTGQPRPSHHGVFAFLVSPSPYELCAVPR

[7] = tested on: prostaglandin synthase; details: 50 uM/L; cited from earlier work
[8] = cited from earlier work
[9] = tested on: Sendai virus; details: post treatment one hour after infection, measured 24 hours post infection; cited from earlier work
[10] = tested on: neutrophil influx; details: intravenous, 150 mg/kg; cited from earlier work
[11] = mice, cited from earlier work; for protection from acetaminophen poisoning, pretreatment: SAMC 100 mg/kg
[12] = tested on: SARS coronavirus; assay: microbe, parasite or virus in culture; details: Severe acute respiratory syndrome coronavirus, read-out: reduction in the viability of infected cells
[13] = tested on: uninfected cells; details: 0.01 mM
[14] = chemiluminescense assay; cited from earlier work
[15] = tested on: cells; details: in vitro exposure; cited from earlier work

Compound: C=CCS[S+]([O-])CC=C (stereo not shown) [Allicin, DiAllylThioSulfinate]
- time for metabolism to allyl-mercaptan ([1]; blood cells exposed to allicin): less than one minute
- Reaction in Blood Half-life [1]: <1 min
- Reaction in Blood Product (moles) [1]: AllylSH (1.6)

Compound: C=CCS [AllylSH, AllylThiol]
- reaction with H2O2 at low concentration ([2]; initial 10 mM H2O2 and 0.85 mM Allyl-SH, FIG. 1): can reduce hydrogen peroxide

Compound: CCCS[S+]([O-])CCC (stereo not shown) [CH3(CH2)2S˜SO(CH2)2CH3]
- nematicidal activity [3]: most effective compound found

Compound: O=C(N[C@H](CO)[C@H](O)c1ccc([N+](=O)[O-])cc1)C(Cl)Cl [Chloramphenicol]
- species inhibited ([4]; 13 types of bacteria): 12/13
- average zone of inhibition [4]: 20 mm

Compound: N[C@@H](CS)C(=O)O [Cys, Cysteine]
- fraction ionized [5]: approximately 3%

Compound: C=CCSSCC=C [DADS, DiAllylDisulfide]
- activity of the enzymes [6]: up to 121 pmol/min/pmol CYP2D6
- conversion of DADS to allicin ([6]; in 30 minutes): approximately 30%
- reaction with H2O2 at high concentration ([2]; initial 40 mM H2O2 and 0.85 mM Allyl-SH, FIG. 2): further oxidized to Allicin
- Reaction in Blood Half-life [1]: 60 min
- Reaction in Blood Product (moles) [1]: AllylSH (0.8)
- inhibition of prostaglandin synthase [7]: 69%
- water solubility in words [8]: poor water solubility

Compound: N[C@@H](CCC(=O)N[C@@H](CS)C(=O)NCC(=O)O)C(=O)O [Glutathione]
- reduction of the level of infection [9]: 95%

Compound: CC(=O)N[C@@H](CS)C(=O)O [NAC, N-acetylcysteine]
- IL-1 induced neutrophil influx into lung lavages [10]: inhibited

Compound: C=CCSC[C@H](N)C(=O)O [S-allylcysteine]
- protection from acetaminophen poisoning, pretreatment [11]: not nearly as effective

Compound: C=CCSSC[C@H](N)C(=O)O [SAMC, S-AllylMercaptoCysteine]
- inhibition at 10 µM [12]: 6%
- Reaction in Blood Product (moles) [1]: AllylSH (0.8)
- toxicity to uninfected cells [13]: no toxicity
- protection from acetaminophen poisoning, pretreatment [11]: protect mice
- protection from acetaminophen poisoning, post treatment ([11]; single dose 200 mg/kg shortly after exposure): protective
- antioxidant or pro-oxidant activity [14]: by far the most effective antioxidant
- total glutathione level of cells [15]: significantly increase; also recorded: significant increase
